Test results as given in patent US4364958A, “1-Substituted-3-cycloalkyl-sulfonyl-pyrrolidine-2,5-dione derivatives and fungicidal compositions thereof” (Chinoin Gyogyszer es Vegyeszeti Termekek Gyara Rt., priority 1979, dated 1982).
≈ marks a conversion by molar mass, not a printed value.

How the values were obtained:
[1] = LD50, intraperitoneal; conditions: mouse, in vivo, ip, intraperitoneally
Description: LD50 of N-pheny-3-cyclohexyl-sulfonyl-pyrrolidine-2,3-dione when applied intraperitoneally

[2] = tested on: Candida benhamii; assay: minimal inhibitory concentration, proliferating fungi; format: cell-based
Description: (§1) As a medium Saboroud medium was employed.

[3] = tested on: Candida guilliermondii; assay: as above; format: cell-based; conditions: Meyerozyma guilliermondii
Description: as §1

[4] = tested on: Candida humicola; assay: as above; format: cell-based; conditions: Vanrija humicola
Description: as §1

[5] = tested on: Candida parapsilosis; assay: as above; format: cell-based; conditions: Lodderomyces parapsilosis
Description: as §1

[6] = tested on: Candida pseudotropic; assay: as above; format: cell-based
Description: as §1

[7] = tested on: Candida valida; assay: as above; format: cell-based; conditions: Pichia membranifaciens
Description: as §1

[8] = tested on: Candida vini; assay: as above; format: cell-based; conditions: Kregervanrija fluxuum
Description: as §1

Row | Structure (SMILES) | LD50 ([1]; female mice) [mg/kg] | LD50 ([1]; male mice) [mg/kg] | MIC ([2]; 24 hours) [µg/mL] | MIC ([2]; 48 hours) [µg/mL] | MIC ([3]; 24 hours) [µg/mL] | MIC ([3]; 48 hours) [µg/mL] | MIC ([4]; 24 hours) [µg/mL] | MIC ([4]; 48 hours) [µg/mL] | MIC ([5]; 24 hours) [µg/mL] | MIC ([5]; 48 hours) [µg/mL] | MIC ([6]; 24 hours) [µg/mL] | MIC ([6]; 48 hours) [µg/mL] | MIC ([7]; 24 hours) [µg/mL] | MIC ([7]; 48 hours) [µg/mL] | MIC ([8]; 24 hours) [µg/mL] | MIC ([8]; 48 hours) [µg/mL]
1 | O=C1CC(S(=O)(=O)C2CCCCC2)C(=O)N1c1ccccc1 (stereo not shown) [1-Phenyl-3-cyclohexyl-sulfonyl-pyrrolidine-2,5-dione] | 382 | 461 | – | – | – | – | – | – | – | – | – | – | – | – | – | –
2 | Cc1ccc(N2C(=O)CC(S(=O)(=O)C3CCCCC3)C2=O)cc1 (stereo not shown) | – | – | 25 (≈ 74.5 µM) | 75 (≈ 224 µM) | 5 (≈ 14.9 µM) | 10 (≈ 29.8 µM) | 5 (≈ 14.9 µM) | 25 (≈ 74.5 µM) | 10 (≈ 29.8 µM) | 50 (≈ 149 µM) | 2.5 (≈ 7.45 µM) | 10 (≈ 29.8 µM) | 5 (≈ 14.9 µM) | 10 (≈ 29.8 µM) | 1 (≈ 2.98 µM) | 5 (≈ 14.9 µM)
